The values that follow are results of earlier work, collected in patent US9339471B2, “Long acting dual release product containing carbinoxamine and pseudoephedrine” (E5 PHARMA, LLC, priority 2007, dated 2016).

The conditions of this series: dependent on urine pH; cited from earlier work.

The structures appear in SMILES notation.

As to `CN[C@@H](C)[C@@H](O)c1ccccc1.Cl` (relative stereo) [Pseudoephedrine, [S—(R*,R*)]-α-[1-(methylamino)ethyl]-benzenemethanol hydrochloride], the mean elimination half-life is 4 to 6 h.
